Reference: ChEMBL document CHEMBL1201862, “PubChem BioAssay data set” (2004)
Activity calls are given as the source filed them.

How the values were obtained:
[1] = target: UDP-galactopyranose mutase (Mycobacterium tuberculosis, UniProt P9WIQ1); assay: Inhibitors of Mycobacterium tuberculosis UDP-galactopyranose mutase (UGM) enzyme Measured in Biochemical System Using Plate Reader - 2105-02_Inhibitor_Dose_CherryPick_Activity. [Related pubchem assays (depositor defined):AID504439]
Keap1/Nrf2 = Keap1/Nrf2 (Homo sapiens, UniProt Q14145); assay: Keap1-Nrf2 protein-protein interaction inhibitors, dose response, biochemical, fluorescence polarization, cherry-picked samples (AID 588683)
HeLa = assay: HeLa cell cytotoxicity, dose response, cytotoxicity control for MITF activator project, CellTiter-Glo luminescence, cherry-pick samples (AID 540259); assay type: functional, cell-based; details: Homo sapiens
Vero [2] = assay: cells; assay type: functional; details: Chlorocebus sabaeus
Vero [3] = assay: cells; assay type: functional, cell-based; details: Chlorocebus sabaeus
[4] = Luminescence Cell-Based Dose Retest to Confirm Inhibitors of Cancer Stem Cells. [Related pubchem assays (depositor defined):AID2717, AID2721]; assay type: functional; details: Homo sapiens
ORF 73 = ORF 73 (Human herpesvirus 8, UniProt O40947); assay: inhibitors of C-LANA binding to LBS DNA, dose response, biochemical, fluorescence polarization, cherry-picked samples (AID 504725); set-up: species or system Human gammaherpesvirus 8;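 further: fluorescence polarization of a labeled DNA duplex reporting LANA DNA binding; potency is for inhibitors that block LANA binding to the DNA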
cells = details: HEK293
[5] = target: T1, Type-1 angiotensin II receptor (Homo sapiens, UniProt P30556); assay: AT1 receptor antagonists, dose response, selectivity assay for APJ receptor antagonist project, cell-based, uHTS hits (AID 463214); assay type: functional;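 further: antagonist potency against angiotensin II stimulated AT1 response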
T1 sequence (P30556 whole entry): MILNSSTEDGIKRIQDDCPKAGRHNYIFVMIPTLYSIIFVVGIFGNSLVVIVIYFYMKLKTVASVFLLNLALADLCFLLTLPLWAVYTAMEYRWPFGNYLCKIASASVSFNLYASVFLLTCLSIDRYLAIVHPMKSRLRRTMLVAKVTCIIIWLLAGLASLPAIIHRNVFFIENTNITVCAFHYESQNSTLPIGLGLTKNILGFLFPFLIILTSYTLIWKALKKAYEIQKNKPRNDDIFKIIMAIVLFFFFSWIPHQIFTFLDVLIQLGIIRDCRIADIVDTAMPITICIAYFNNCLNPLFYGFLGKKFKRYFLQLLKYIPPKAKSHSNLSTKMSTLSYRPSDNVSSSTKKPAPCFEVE

INS1 = assay: beta cell apoptosis inhibitors, cytokine rescue, dose response, luminescence, retest (AID 449756); assay type: functional, cell-based; details: Rattus norvegicus;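 further: cell death triggered by IL-1 beta plus TNF-alpha plus IFN-gamma mixture; protective hits raise ATP signal compared with cytokine alone wells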
[6] = control 3'UTR Renilla luciferase suppression, dose response, counter-screen for Shn3 inhibitor project, cell-based, Clone20-Shn3RL, cherry-picked (AID 624133); assay type: functional
Beta-galactosidase = Beta-galactosidase (Escherichia coli, UniProt Q8VNN2); assay: PubChem AID 485352; assay type: functional
[7] = HepG2 cell cytotoxicity, dose response, cytotoxicity control for Shn3 inhibitor project, CellTiter-Glo, cherry-picked (AID 624134); assay type: functional, cell-based
[8] = target: T2, Replicative DNA helicase DnaB (Mycobacterium tuberculosis, UniProt P9WMR3); assay: DnaB intein splicing inhibitors, dose response, biochemical, cell-free fluorescence (AID 449749); assay type: functional
T2 sequence (P9WMR3 whole entry): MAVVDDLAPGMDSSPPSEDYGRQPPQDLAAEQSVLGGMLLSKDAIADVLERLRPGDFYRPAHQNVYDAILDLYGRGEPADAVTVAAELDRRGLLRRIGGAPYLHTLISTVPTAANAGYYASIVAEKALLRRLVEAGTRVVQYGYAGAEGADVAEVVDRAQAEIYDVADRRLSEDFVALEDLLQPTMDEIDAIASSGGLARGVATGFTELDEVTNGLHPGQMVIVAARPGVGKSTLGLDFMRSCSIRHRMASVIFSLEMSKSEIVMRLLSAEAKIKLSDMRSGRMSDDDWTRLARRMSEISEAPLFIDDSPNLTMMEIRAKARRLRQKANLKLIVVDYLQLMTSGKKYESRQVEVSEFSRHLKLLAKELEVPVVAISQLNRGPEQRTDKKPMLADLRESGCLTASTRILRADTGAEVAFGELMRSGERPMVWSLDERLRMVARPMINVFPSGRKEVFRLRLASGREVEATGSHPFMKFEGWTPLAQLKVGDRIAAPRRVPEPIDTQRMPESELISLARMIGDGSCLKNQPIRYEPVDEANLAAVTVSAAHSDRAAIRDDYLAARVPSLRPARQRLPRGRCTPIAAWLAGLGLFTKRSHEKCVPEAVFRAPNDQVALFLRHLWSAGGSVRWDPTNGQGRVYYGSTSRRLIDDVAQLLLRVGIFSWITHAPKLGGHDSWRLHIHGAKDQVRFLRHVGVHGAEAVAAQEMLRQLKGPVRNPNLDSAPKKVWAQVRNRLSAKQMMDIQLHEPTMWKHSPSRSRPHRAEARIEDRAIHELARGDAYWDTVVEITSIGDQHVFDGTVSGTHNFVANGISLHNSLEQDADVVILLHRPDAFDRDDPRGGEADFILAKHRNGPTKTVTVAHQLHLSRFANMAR

[9] = Shn3 3'UTR reporter inhibitors, dose response, cell-based, Clone20 osteoblasts, firefly luciferase, cherry-picked (AID 624132); assay type: functional;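 further: firefly luciferase luminescence from reporter carrying the Shn3 3'UTR in osteoblasts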
CHO = assay: cytotoxicity in TLR9-MyD88 CHO cells, dose response, cytotoxicity control for TLR9-MyD88 binding inhibitor project, cell-based, luminescence (AID 588339); assay type: functional, hamster; details: Cricetulus griseus;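 further: CHO cells stably coexpressing TLR9 and MyD88 fusions from primary screen; compound exposure lasted 48 hours before viability readout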
Protein RecA = target: T3, Protein RecA (Mycobacterium tuberculosis, UniProt P9WHJ3); assay: Fluorescence Cell-Free Homogeneous Dose Retest to Identify Inhibitors of RecA-Intein Splicing Activity. [Related pubchem assays (depositor defined):AID2097, AID2223, AID489010, AID492950]; assay type: functional
T3 sequence (P9WHJ3 whole entry): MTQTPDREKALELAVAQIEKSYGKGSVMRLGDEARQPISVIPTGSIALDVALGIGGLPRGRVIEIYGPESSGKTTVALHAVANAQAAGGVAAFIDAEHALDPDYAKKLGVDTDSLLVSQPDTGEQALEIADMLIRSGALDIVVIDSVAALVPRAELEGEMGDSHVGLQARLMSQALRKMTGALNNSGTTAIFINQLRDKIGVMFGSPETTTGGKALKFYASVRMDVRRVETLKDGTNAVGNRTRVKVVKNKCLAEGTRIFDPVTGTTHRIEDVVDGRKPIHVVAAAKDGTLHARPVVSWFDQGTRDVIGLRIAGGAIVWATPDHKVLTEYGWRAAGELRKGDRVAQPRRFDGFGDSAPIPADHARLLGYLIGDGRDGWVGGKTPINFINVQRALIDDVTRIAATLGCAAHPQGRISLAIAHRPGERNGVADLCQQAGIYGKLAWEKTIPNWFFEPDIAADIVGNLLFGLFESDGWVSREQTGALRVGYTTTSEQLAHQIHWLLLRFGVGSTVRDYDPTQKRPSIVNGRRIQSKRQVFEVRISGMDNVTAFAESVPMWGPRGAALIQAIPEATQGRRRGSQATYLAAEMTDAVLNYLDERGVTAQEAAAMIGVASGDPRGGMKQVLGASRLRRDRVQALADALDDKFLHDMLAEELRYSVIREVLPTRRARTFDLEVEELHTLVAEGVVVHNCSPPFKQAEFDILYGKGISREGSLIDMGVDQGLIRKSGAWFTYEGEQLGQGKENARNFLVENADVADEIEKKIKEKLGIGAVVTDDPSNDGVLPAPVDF

[10] = cytotoxicity toward NIH3T3 fibroblasts, dose response, counter-screen, cell-based, ATP luminescence, mouse fibroblasts (AID 2010); assay type: functional;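 further: cells exposed to compound for about 90 hours before reading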
Beta Lactamase = Beta Lactamase (Pseudomonas aeruginosa, UniProt Q932Y6); assay: beta-lactamase reporter inhibitor potency, dose response, artefact control for TLR9-MyD88 binding inhibitor project, BLA reporter cells, FRET fluorescence (AID 588341); assay type: cell-based;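 further: cell based assay in CHO-K1 cells stably expressing beta-lactamase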
[11] = inhibitors of intracellular T. cruzi replication, confirmation, NIH3T3 host cells, beta-gal luminescence (AID 2044); assay type: functional, cell-based;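 further: intracellular parasites grown in NIH/3T3 mouse fibroblasts as host cells; luminescent beta-galactosidase reporter signal from transgenic T. cruzi replicating inside host cells; inhibitors lower the luminescence signal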
HEK293 = assay: inhibitors of LMP1-driven NF-kB reporter, dose response, cell-based, HEK293, luciferase, cherry-pick (AID 588343); assay type: functional; details: Homo sapiens
BJ [12] = assay: cells; assay type: functional, cell-based; details: Homo sapiens
BJ [13] = assay: cytotoxicity toward Ras-transformed BJeLR fibroblasts, dose response, cell-based, alamar blue fluorescence, cherrypicked samples (AID 2631); assay type: functional; details: Homo sapiens;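 further: confirmatory dose-response assay in RAS-dependent BJ fibroblasts engineered with TERT, LT and ST, with cytotoxicity read by fluorescence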
[14] = cytotoxicity toward DRD oncogenic fibroblasts, dose response, cell-based, non-viral oncogenic, luminescence (AID 1934); assay type: functional; details: Homo sapiens
BJ [15] = assay: cytotoxicity toward BJ-TERT fibroblasts, dose response, cell-based, RAS-independent, luminescence (AID 1933); assay type: functional; details: Homo sapiens
BJ [16] = assay: cytotoxicity toward BJ-TERT-LT-ST fibroblasts, dose response, cell-based, RAS-independent, luminescence (AID 1935); assay type: functional; details: Homo sapiens;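 further: BJ fibroblasts immortalized with TERT plus LT and ST oncogenes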
[17] = target: T4, Endoribonuclease toxin MazF (Escherichia coli K-12, UniProt P0AE70); assay: MazF toxin RNase activators, dose response, biochemical, fluorescence, single-stranded RNA substrate, uHTS hits (AID 588481); assay type: functional
T4 sequence (P0AE70 whole entry): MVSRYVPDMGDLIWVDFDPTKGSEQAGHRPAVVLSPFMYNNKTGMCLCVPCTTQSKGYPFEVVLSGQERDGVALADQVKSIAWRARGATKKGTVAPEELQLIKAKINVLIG

[18] = target: T4, Endoribonuclease toxin MazF; assay: fluorescent RNA oligo signal without MazF, dose response, counter-screen for MazEF activator project, biochemical, fluorescence, single-stranded RNase substrate (AID 588502); assay type: functional

Keap1/Nrf2, sequence (Q16236 whole entry): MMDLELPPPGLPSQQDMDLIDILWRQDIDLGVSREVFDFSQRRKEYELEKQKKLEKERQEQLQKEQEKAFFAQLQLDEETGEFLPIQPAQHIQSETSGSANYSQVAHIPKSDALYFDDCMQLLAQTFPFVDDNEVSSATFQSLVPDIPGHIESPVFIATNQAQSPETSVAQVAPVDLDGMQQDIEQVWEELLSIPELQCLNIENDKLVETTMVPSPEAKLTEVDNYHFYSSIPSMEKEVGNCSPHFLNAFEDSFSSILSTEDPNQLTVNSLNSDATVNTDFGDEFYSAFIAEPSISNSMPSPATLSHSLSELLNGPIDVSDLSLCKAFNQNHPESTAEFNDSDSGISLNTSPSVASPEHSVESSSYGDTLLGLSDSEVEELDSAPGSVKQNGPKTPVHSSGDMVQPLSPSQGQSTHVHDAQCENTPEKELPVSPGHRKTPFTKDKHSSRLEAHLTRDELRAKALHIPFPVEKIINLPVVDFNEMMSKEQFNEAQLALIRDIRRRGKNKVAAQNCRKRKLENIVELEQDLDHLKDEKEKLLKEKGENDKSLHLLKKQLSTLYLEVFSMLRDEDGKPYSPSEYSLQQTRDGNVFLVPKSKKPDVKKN
Keap1/Nrf2, sequence (Q14145 whole entry): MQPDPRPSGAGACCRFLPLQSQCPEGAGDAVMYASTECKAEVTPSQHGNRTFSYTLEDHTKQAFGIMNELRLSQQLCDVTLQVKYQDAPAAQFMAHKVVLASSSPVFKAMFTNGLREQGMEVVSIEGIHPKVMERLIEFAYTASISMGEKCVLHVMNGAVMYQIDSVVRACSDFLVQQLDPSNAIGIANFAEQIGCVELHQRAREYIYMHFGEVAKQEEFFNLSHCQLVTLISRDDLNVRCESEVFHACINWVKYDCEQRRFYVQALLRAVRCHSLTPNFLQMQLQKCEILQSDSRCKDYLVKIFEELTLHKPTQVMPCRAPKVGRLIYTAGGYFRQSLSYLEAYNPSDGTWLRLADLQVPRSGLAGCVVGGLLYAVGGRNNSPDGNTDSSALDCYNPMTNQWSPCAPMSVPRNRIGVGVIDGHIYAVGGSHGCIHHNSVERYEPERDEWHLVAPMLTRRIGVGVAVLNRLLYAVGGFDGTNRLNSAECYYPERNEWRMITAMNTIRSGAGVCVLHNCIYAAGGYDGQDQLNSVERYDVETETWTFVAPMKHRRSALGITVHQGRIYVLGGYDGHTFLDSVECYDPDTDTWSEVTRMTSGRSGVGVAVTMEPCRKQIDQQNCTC
UDP-galactopyranose mutase, sequence (P9WIQ1 whole entry): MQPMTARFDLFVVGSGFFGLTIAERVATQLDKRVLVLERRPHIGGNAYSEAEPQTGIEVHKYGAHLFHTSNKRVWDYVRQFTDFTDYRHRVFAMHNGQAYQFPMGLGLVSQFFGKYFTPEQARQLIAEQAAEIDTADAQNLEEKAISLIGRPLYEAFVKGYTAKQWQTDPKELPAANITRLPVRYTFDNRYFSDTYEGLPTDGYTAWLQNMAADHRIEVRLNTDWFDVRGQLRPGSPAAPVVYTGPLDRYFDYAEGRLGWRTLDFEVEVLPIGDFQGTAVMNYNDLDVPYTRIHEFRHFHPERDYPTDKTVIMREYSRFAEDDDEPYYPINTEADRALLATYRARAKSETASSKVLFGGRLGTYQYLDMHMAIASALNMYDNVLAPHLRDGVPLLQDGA
Beta Lactamase, sequence (Q932Y6 whole entry): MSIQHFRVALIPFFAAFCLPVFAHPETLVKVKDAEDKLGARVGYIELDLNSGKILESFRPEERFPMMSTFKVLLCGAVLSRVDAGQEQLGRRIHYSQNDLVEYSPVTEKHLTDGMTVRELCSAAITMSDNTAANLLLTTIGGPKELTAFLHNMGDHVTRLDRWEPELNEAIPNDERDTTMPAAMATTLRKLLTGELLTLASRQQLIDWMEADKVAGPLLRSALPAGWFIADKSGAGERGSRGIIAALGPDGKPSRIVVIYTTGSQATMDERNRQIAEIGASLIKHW
ORF 73, sequence (O40947 whole entry): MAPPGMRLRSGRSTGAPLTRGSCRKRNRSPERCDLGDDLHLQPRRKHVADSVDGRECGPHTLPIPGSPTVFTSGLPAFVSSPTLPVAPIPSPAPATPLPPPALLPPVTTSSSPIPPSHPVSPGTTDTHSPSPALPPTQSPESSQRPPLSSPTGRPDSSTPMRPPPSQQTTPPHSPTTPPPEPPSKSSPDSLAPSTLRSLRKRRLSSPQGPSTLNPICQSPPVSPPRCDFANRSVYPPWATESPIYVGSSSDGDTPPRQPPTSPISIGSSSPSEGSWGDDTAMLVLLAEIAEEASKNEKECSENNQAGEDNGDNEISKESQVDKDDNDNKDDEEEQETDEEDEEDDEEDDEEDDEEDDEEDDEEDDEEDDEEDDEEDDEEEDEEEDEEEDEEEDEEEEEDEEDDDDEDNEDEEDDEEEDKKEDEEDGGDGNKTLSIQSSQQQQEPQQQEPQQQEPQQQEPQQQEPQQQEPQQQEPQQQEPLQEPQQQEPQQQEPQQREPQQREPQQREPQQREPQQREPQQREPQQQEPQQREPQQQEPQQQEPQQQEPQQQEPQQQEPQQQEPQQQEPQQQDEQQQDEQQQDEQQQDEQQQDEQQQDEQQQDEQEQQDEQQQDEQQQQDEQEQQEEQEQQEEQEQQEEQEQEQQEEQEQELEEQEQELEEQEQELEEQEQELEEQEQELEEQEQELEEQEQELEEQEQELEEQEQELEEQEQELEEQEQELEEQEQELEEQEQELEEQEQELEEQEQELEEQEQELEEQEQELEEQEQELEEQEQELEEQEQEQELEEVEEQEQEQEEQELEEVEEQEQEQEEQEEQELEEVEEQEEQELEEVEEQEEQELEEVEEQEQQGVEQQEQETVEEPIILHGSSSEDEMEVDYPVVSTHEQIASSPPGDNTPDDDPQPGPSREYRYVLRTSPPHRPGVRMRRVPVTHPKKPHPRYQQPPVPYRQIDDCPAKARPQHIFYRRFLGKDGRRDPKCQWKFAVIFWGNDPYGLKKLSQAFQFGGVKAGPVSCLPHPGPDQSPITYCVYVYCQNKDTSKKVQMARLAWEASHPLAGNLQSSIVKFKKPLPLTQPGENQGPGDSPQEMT
Beta-galactosidase, sequence (Q8VNN2 whole entry): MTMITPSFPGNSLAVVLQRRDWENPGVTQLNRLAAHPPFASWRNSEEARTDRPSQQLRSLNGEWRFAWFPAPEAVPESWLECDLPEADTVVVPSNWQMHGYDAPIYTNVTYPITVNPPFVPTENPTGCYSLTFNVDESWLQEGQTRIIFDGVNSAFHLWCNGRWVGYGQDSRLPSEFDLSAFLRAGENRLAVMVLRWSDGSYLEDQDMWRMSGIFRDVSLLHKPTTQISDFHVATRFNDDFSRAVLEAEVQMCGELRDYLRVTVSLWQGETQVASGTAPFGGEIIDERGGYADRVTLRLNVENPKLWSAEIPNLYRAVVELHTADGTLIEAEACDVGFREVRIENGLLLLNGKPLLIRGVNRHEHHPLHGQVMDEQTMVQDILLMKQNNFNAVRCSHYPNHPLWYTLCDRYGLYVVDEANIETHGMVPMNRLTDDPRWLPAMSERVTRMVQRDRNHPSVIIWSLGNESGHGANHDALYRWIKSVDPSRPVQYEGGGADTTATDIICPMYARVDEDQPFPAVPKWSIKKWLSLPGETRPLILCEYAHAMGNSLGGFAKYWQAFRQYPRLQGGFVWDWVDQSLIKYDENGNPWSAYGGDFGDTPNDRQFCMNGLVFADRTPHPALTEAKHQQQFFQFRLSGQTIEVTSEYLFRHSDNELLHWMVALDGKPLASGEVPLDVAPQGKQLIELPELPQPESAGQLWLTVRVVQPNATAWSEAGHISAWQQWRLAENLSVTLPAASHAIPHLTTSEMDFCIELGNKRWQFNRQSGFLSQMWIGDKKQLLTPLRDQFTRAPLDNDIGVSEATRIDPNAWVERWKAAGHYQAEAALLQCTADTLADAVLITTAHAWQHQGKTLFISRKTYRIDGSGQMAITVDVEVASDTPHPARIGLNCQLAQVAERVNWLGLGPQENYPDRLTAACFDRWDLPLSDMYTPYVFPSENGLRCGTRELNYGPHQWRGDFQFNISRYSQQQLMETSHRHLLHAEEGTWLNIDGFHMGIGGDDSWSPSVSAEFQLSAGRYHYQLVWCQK

COc1ccc(N=Nc2nc3cc(Br)c(Br)cc3n2C)c(OC)c1
AC50 [1]: 247 µM (active) | AC50 (Keap1/Nrf2): > 52 µM (inactive)

Cc1cc(C)n(-c2nnc(NC(C)(C)C)nn2)n1
AC50 (HeLa): 62.6 µM (active)

CN(C)CCCNc1ncnc2c1c(-c1ccccc1)cn2-c1ccccc1
CC50 (Vero [2]): > 25 µM (active) | IC50 (Vero [3]): 23.9 µM (active)

CCN(CC)c1ccc2cc(S(=O)(=O)c3ccc(Cl)cc3)c(=O)oc2c1
AC50 [4]: 0.246 µM (active) | AC50 (ORF 73): 19.1 µM (active) | AC50 [1]: 10.8 µM (active) | AC50 (cells): 35.7 µM (active) | AC50 (Keap1/Nrf2): 11.8 µM (active)

CS(=O)(=O)c1ncc(Cl)c(C(=O)Nc2ccc(OC(F)F)cc2)n1
IC50 [5]: 7.79 µM (active) | AC50 (INS1): 8.07 µM (active) | AC50 [6]: 7.27 µM (active) | EC50 (Beta-galactosidase): > 40 µM (inactive) | AC50 [7]: 22.1 µM (active) | AC50 [8]: 3.68 µM (active) | AC50 [9]: 0.682 µM (active) | IC50 (CHO): 2.17 µM (active) | EC50 (Protein RecA): 3.72 µM (active) | EC50 [10]: 4.44 µM (active) | IC50 (Beta Lactamase): 6.65 µM (active) | EC50 [11]: 1.52 µM (active) | AC50 (HEK293): 7.88 µM (active)

CCN1CCN(CCNC(=O)c2ccc(/C=C3/Sc4ccccc4N(Cc4ccccc4C)C3=O)cc2)CC1
EC50 (BJ [12]): 13.7 µM (active) | EC50 (BJ [13]): > 133 µM (inconclusive) | EC50 [14]: 9.43 µM (active) | EC50 (BJ [15]): 6.6 µM (active) | EC50 (BJ [16]): > 150 µM (inconclusive)

O=C(N/N=C/c1cccnc1)c1ccc(NC(=O)C(c2ccccc2)c2ccccc2)cc1
EC50 (BJ [12]): 0.949 µM (inconclusive) | EC50 [17]: 40.8 µM (inactive) | AC50 (INS1): 0.578 µM (active) | EC50 (BJ [13]): > 66.7 µM (inactive) | EC50 [18]: > 99 µM (inactive) | EC50 [14]: > 150 µM (not active) | EC50 (BJ [15]): > 150 µM (not active) | EC50 (BJ [16]): > 150 µM (not active)

CCN(CC)C(=O)C1CCCc2c1[nH]c1ccc(Cl)cc21 (centres undefined)
CC50 (Vero [2]): > 25 µM (active) | IC50 (Vero [3]): 3.28 µM (active)

CC1CCN(c2ccc3c(c2)S(=O)(=O)c2ccccc2C3=O)CC1
AC50 (HeLa): 39.7 µM (active)
